Experimental data as given in PubChem BioAssay (NCI).
Where “and” joins values, the source holds several entries; their conditions need not be identical. Equal values may be shown once.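 Interpolation was linear, between the two tested concentrations surrounding the appropriate level; five concentrations were tested over 48 hours in 96-well plates. The concentration for 50% growth inhibition is given as GI50. TGI denotes the concentration required for complete inhibition of growth.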

Assays:
Assay in all cases: NCI-60 cell line screen, 48 h
[1] = test system: HOP-92 NSCLC
[2] = test system: LOX IMVI melanoma
[3] = test system: MDA-N
[4] = test system: UACC-62 melanoma
[5] = test system: HS 578T breast
[6] = test system: OVCAR-3 ovarian
[7] = test system: MDA-MB-231 breast
[8] = test system: HT29 colon
[9] = test system: SK-OV-3 ovarian
[10] = test system: SR leukemia

Row | SMILES | TGI [1] [µM] | TGI [2] [µM] | TGI [3] [µM] | TGI [4] [µM] | TGI [5] [µM] | TGI [6] [µM] | TGI [7] [µM] | TGI [8] [µM] | TGI [9] [µM] | TGI [10] [µM] | GI50 [1] | GI50 [8] [µM]
1 | O=c1c(Cc2ccc(Cl)cc2)nnc2sc(-c3ccc(-c4ccc(Cl)cc4Cl)o3)nn12 | > 100 | > 100 | > 100 | > 100 | > 100 | > 100 | > 100 | > 100 | > 100 | – | – | –
2 | CC(C)(C)N/N=C(\C(=O)NC1=C(Cl)C(=O)c2ccccc2C1=O)C1C=CCS1(=O)=O (stereo unspecified) | 33 | 39.7 | 6.33 | 9.17 | 64.8 | 9.38 | 32.4 | 29.3 | > 100 | – | – | –
3 | CCc1c(-c2ccc(OC)cc2)oc(OC)c(C)c1=O | > 100 | > 100 | – | > 100 | > 100 | > 100 | > 100 | > 100 | > 100 | – | – | –
4 | N/C1=C/C(=O)NC(=O)c2c(c3ccccc3oc2=O)C1 | > 100 | > 100 | > 100 | > 100 | > 100 | > 100 | > 100 | > 100 | – | > 100 | – | –
5 | NC(=O)CC(N=Cc1nc(-c2ccccc2)oc1O)C(=O)O (stereo unspecified) | > 100 | > 100 | – | > 100 | – | > 100 | – | > 100 | > 100 | – | – | –
6 | CC(C)(NC(=O)OCc1ccccc1)C(=O)OC(=O)C(C)(C)NC(=O)OCc1ccccc1 | > 100 | > 100 | > 100 | > 100 | > 100 | > 100 | > 100 | > 100 | > 100 | – | – | –
7 | NC(=S)N1N=C2c3ccccc3CC[C@H]2[C@@H]1c1ccc(Cl)cc1 | 58.2 | > 100 | – | > 100 | – | > 100 | – | > 100 | > 100 | > 100 | – | –
8 | COC(=O)c1cc(OC)c(OC)c(OC)c1-c1cc2c(cc1C=O)OCO2 | > 10 | > 10 | > 10 | > 10 | > 10 | > 10 | > 10 | > 10 | > 10 | – | – | –
9 | O=c1[nH]c(=O)n(COCc2ccccc2)cc1Nc1ccc(Br)cc1 | > 100 | > 100 | > 100 | > 100 | > 100 | > 100 | – | > 100 | – | > 100 | – | –
10 | CCCCOC(=O)C1CC[C@H]2[C@@H]3CCc4cc(OC(=O)c5cccc6c(=O)c7ccccc7[nH]c56)ccc4[C@H]3CC[C@]12C (stereo partly specified) | 16.5 | 17.1 | 14.5 | 13.3 | 39.7 | 15.3 | 14.5 | 18.6 | 18 | – | – | –
11 | COc1cc(-c2c3c(cc4c2OCO4)[C@@H](Nc2ccc(-c4ccc(-c5ccc(N[C@@H]6c7cc8c(cc7C(c7cc(OC)c(O)c(OC)c7)[C@H]7C(=O)OC[C@H]67)OCO8)cc5)cc4)cc2)[C@H]2COC(=O)[C@@H]2C3)cc(OC)c1O (stereo partly specified) | 29.4 | > 100 | – | – | > 100 | 4.85 | 6 | 5.62 | 10.1 | – | – | –
12 | CC(C)C1=CC(=O)[C@@](C)(C2[C@H](O)C[C@@]3(C)[C@@H]4CC=C5[C@@H](CC[C@@H](OC6OCC(O)C(O)C6OC6OC(C)C(O)C(O)C6O)C5(C)C)[C@]4(C)C(=O)C[C@]23C)O1 (stereo partly specified) | > 100 | – | > 100 | > 100 | > 100 | > 100 | > 100 | > 100 | > 100 | – | – | –
13 | C[C@]12CC(c3ccccc3O1)C(C(=O)Nc1nc(C34CC5CC(CC(C5)C3)C4)cs1)C(=O)N2 (stereo partly specified) | > 100 | > 100 | – | > 100 | > 100 | > 100 | > 100 | > 100 | > 100 | > 100 | – | –
14 | O=C(O)/C=C/c1c[nH]c(=O)[nH]c1=O | > 500 | > 500 | – | > 500 | – | > 500 | – | > 500 | > 500 | – | > 500 µM and 76.3 µM | > 500
15 | COC(=O)C1(SC)C2CCC3C2CCC31 (stereo unspecified) | > 100 | > 100 | > 100 | – | > 100 | > 100 | > 100 | – | > 100 | > 100 | – | –
16 | O=c1[nH]c(NCc2ccc(Cl)cc2)nc2nc[nH]c12 | > 100 | > 100 | > 100 | > 100 | > 100 | > 100 | > 100 | > 100 | > 100 | – | – | –
17 | C(#CP(c1ccccc1)c1ccccc1)P(C#CP(c1ccccc1)c1ccccc1)c1ccccc1 | > 100 | – | > 100 | > 100 | > 100 | > 100 | > 100 | > 100 | 26.1 | > 100 | – | –
18 | COC1C(N(C)C)=C(c2ccccc2)C(=O)N2CCc3ccccc3C12 (stereo unspecified) | > 100 | > 100 | > 100 | > 100 | > 100 | – | > 100 | > 100 | > 100 | – | – | –
19 | C#CCN(Cc1ccc2nc(-c3ccccc3)c(N)nc2c1)c1cc(OC)c(OC)c(OC)c1 | – | 59.3 | – | 63.7 | – | 59 | – | 59 | – | 39.2 | – | –
20 | CCn1c(CCl)nc2c1C(=O)c1ccccc1C2=O | 3.75 | – | 3.85 | 3.14 | 6.24 | 3.05 | – | 3.47 | 2.38 | – | – | –
21 | [N-]=[N+]=CC(=O)OCCCCl | > 100 | > 100 | > 100 | > 100 | – | > 100 | > 100 | > 100 | > 100 | > 100 | – | –
22 | C[C@H](CCC1SC1(C)C)C1CCC2(C)C3=C(CC[C@]12C)[C@@]1(C)CC[C@H](O)C(C)(C)C1CC3 (stereo partly specified) | > 100 | > 100 | – | > 100 | – | > 100 | – | > 100 | > 100 | > 100 | – | –
23 | COc1cc2c(cc1OC)C(=O)/C(=C/c1cc(C)cc(C)c1)C2 | > 100 | > 96.8 | 0.0621 | > 84 | > 100 | 1.04 | 7.44 | 0.835 | > 32.9 | – | – | –
